The supplement of paper PMC10307832

Assays:
Assay in all cases: relative viability (nuclei count vs DMSO), 5 days (fraction); higher = more cells survive
[1] = compound: O=C(O)c1ccc2c(c1)nc(Nc1cccc(Cl)c1)c1ccncc12 [Silmitasertib] + Cc1nc(Nc2ncc(C(=O)Nc3c(C)cccc3Cl)s2)cc(N2CCN(CCO)CC2)n1 [Dasatinib] (partner 0.075 µM)
Summary of the method: (§1)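 Lung cancer cell lines were seeded in 1536-well plates and dosed by pin tool the next day, with either a single drug or a fixed anchor-drug dose combined with five library-drug doses (not always all listed) spaced in √10 steps. Five days later, one step fixed the cells and stained their nuclei (final 0.05% Triton X-100, 1% formaldehyde, 1 ug/ml Hoechst), and nuclei were counted on 4× images. Relative viability is the nuclei count in treated wells divided by the count in vehicle wells, and each value is the median of duplicate plates.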

[2] = compound: O=C(O)c1ccc2c(c1)nc(Nc1cccc(Cl)c1)c1ccncc12 [Silmitasertib] + COc1cc2c(Oc3ccc(NC(=O)C4(C(=O)Nc5ccc(F)cc5)CC4)cc3F)ccnc2cc1OCCCN1CCOCC1 [Foretinib] (partner 0.25 µM)
Summary of the method: as §1

[3] = compound: O=C(O)c1ccc2c(c1)nc(Nc1cccc(Cl)c1)c1ccncc12 [Silmitasertib] + Cc1cc(Nc2cc(N3CCN(C)CC3)nc(Sc3ccc(NC(=O)C4CC4)cc3)n2)n[nH]1 [Tozasertib] (partner 0.1 µM)
Summary of the method: as §1

[4] = compound: O=C(O)c1ccc2c(c1)nc(Nc1cccc(Cl)c1)c1ccncc12 [Silmitasertib] + CC1(C)CCC(c2ccc(Cl)cc2)=C(CN2CCN(c3ccc(C(=O)NS(=O)(=O)c4ccc(N[C@H](CCN5CCOCC5)CSc5ccccc5)c(S(=O)(=O)C(F)(F)F)c4)cc3)CC2)C1 [Navitoclax] (partner 0.5 µM)
Summary of the method: as §1

[5] = compound: O=C(O)c1ccc2c(c1)nc(Nc1cccc(Cl)c1)c1ccncc12 [Silmitasertib] + Nc1ncn([C@H]2C[C@H](O)[C@@H](CO)O2)c(=O)n1 [Decitabine] (partner 2 µM)
Summary of the method: as §1

| Cell Line | relative viability ([1]; first compound 0.04 µM) | relative viability ([1]; first compound 0.4 µM) | relative viability ([1]; first compound 1.265 µM) | relative viability ([1]; first compound 4 µM) | relative viability ([2]; first compound 0.04 µM) | relative viability ([2]; first compound 0.4 µM) | relative viability ([2]; first compound 1.265 µM) | relative viability ([2]; first compound 4 µM) | relative viability ([3]; first compound 0.04 µM) | relative viability ([3]; first compound 0.4 µM) | relative viability ([3]; first compound 1.265 µM) | relative viability ([3]; first compound 4 µM) | relative viability ([4]; first compound 0.04 µM) | relative viability ([4]; first compound 0.4 µM) | relative viability ([4]; first compound 1.265 µM) | relative viability ([4]; first compound 4 µM) | relative viability ([5]; first compound 0.04 µM) | relative viability ([5]; first compound 0.4 µM) | relative viability ([5]; first compound 1.265 µM) | relative viability ([5]; first compound 4 µM) |
| --- | --- | --- | --- | --- | --- | --- | --- | --- | --- | --- | --- | --- | --- | --- | --- | --- | --- | --- | --- | --- |
| 201T | 0.533 | 0.593 | 0.522 | 0.612 | 1.2 | 1.19 | 1.09 | 1.21 | 0.955 | 0.818 | 1.04 | 1.05 | 1.21 | 1.19 | 1.26 | 1.31 | 0.851 | 0.841 | 0.847 | 0.903 |
| A549 |  |  |  |  | 0.961 | 0.819 | 0.952 | 0.858 |  |  |  |  | 1.44 | 1.16 | 1.27 | 1.04 | 0.244 |  | 0.27 | 0.158 |
| A-427 | 0.724 |  | 0.858 | 0.335 | 1.1 |  | 1.13 | 0.869 | 0.19 |  | 0.132 | 0.15 | 1.05 |  | 0.943 | 0.566 | 0.525 | 0.554 | 0.461 | 0.421 |
| ABC-1 | 0.632 | 0.505 | 0.321 | 0.391 | 1.07 | 0.83 | 0.457 | 0.367 | 0.19 | 0.165 | 0.185 | 0.193 |  |  |  |  | 1.44 | 1.05 | 0.686 | 0.922 |
| BEN | 0.382 |  | 0.295 | 0.233 | 0.858 |  | 0.657 | 0.467 | 0.435 | 0.367 | 0.481 | 0.422 | 0.0617 | 0.0687 | 0.059 | 0.0431 | 0.866 | 0.685 | 0.537 | 0.656 |
| CAL-12T | 0.569 | 0.32 | 0.183 | 0.198 | 1.12 | 1.02 | 1.06 | 0.478 | 0.292 | 0.282 | 0.227 | 0.175 | 1.39 | 1.16 | 1.19 | 0.387 |  |  |  |  |
| COR-L23 | 0.535 | 0.404 | 0.426 | 0.408 | 1.09 | 0.794 | 0.951 | 1.16 | 0.232 | 0.2 | 0.118 | 0.159 | 1.1 | 0.982 | 1.06 | 0.968 | 0.495 | 0.507 | 0.501 | 0.368 |
| COR-L 105 | 0.357 | 0.345 | 0.34 | 0.264 | 1.44 | 0.881 | 0.791 | 0.562 | 0.394 | 0.349 | 0.389 | 0.326 | 0.999 | 0.691 | 0.71 | 0.563 | 0.626 | 0.599 | 0.672 | 0.454 |
| ChaGo-K-1 | 0.586 | 0.464 | 0.566 | 0.463 | 0.99 | 0.731 | 0.876 | 0.971 | 0.198 | 0.219 | 0.231 | 0.241 | 1.45 | 0.917 | 0.84 | 0.574 | 0.526 | 0.486 | 0.463 | 0.509 |
